Consider one compound from BindingDB's records for patent US20230312583 (Shengke Pharmaceuticals (Jiangsu), 2023).

The assay concerns the target Mast/stem cell growth factor receptor Kit (Homo sapiens, UniProt P10721). In words: Biological Assay. As for the experimental part:
Reactions were carried out in the presence of 10 μM ATP. […] The radioactive phosphorylated substrate remaining on the filter paper was measured.

Sequence of Mast/stem cell growth factor receptor Kit (P10721 whole entry): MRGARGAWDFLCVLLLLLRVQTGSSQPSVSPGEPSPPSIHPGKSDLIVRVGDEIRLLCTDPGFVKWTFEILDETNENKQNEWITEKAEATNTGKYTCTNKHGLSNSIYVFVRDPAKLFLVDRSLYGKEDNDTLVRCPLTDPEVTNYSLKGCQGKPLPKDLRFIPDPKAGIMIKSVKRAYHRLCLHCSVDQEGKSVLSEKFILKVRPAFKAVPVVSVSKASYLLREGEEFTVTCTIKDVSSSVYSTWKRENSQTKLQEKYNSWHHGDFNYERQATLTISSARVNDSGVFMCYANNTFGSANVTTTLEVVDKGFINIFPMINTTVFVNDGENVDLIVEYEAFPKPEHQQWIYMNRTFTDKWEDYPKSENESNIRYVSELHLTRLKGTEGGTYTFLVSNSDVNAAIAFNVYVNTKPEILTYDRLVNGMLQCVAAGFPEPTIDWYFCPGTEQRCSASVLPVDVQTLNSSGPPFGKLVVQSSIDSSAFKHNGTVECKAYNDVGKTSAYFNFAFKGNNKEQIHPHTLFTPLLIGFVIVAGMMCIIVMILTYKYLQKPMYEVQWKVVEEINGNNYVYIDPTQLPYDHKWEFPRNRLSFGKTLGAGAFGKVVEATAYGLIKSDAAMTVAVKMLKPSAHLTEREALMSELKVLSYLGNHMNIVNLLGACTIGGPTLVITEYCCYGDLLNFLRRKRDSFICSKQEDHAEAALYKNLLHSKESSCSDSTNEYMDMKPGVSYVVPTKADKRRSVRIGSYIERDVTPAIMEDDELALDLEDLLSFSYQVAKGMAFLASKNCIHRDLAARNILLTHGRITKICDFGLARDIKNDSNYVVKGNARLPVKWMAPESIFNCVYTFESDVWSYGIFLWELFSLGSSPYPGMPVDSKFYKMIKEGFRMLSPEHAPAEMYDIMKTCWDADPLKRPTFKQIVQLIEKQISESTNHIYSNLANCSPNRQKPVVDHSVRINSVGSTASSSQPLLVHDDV

A word on the IC50: it is the concentration at which inhibition is half-maximal. For the compound `CC#CCOc1cc(Nc2ncc3ccc4ncn(C(C)C)c4c3n2)ncc1N1CCNCC1` [US20230312583, Compound I-13], half-maximal inhibition (IC50) was put at 93.2 nM.
